Experimental data taken from EP4803142A2 (Kayothera Inc., priority 2021, dated 2022).
pIC50: −log10 of the molar value.

Experiments:
mALDH1a2 = target: T1, mALDH1a2 (Mus musculus, UniProt Q62148); assay: biochemical; conditions: read-out: mAldhla2 IC50
T1 construct: pET-Aldh1a2 transformed BL21-DE3 cultures; cell extracts
T1 sequence (Q62148 1-518): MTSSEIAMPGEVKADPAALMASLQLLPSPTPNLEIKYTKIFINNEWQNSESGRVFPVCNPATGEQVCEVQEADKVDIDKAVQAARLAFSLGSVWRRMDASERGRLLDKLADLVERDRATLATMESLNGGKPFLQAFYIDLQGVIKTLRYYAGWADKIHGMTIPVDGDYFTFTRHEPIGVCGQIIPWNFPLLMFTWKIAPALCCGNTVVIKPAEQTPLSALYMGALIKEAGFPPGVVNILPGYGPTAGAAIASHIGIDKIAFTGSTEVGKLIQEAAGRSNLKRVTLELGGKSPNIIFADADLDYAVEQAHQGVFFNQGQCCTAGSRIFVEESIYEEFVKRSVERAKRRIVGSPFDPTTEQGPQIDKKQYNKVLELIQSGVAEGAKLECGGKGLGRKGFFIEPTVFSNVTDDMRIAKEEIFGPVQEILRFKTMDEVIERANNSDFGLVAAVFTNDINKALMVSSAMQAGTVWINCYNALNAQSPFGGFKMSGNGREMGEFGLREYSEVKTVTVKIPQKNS
Description: (§1) Biological Example 5C. Aldh1a2 Enzyme Inhibition Assay
(§2) Cell extracts were spun at 16000 x g for 5 minutes.
(§3) Recombinant enzyme and inhibitor added immediately before assay. Reaction rate measured by resorufin fluorescence. […]
(§4) Table 3B. IC50 values (nM) for inhibition of hALDH1a2 and mALDH1a2 of selected compounds

hALDH1a2 = target: T2, hALDH1a2 (Homo sapiens, UniProt O94788); assay: biochemical; conditions: read-out: hAldhla2 IC50
T2 construct: pET-Aldh1a2 transformed BL21-DE3 cultures; cell extracts
T2 sequence (O94788 1-518): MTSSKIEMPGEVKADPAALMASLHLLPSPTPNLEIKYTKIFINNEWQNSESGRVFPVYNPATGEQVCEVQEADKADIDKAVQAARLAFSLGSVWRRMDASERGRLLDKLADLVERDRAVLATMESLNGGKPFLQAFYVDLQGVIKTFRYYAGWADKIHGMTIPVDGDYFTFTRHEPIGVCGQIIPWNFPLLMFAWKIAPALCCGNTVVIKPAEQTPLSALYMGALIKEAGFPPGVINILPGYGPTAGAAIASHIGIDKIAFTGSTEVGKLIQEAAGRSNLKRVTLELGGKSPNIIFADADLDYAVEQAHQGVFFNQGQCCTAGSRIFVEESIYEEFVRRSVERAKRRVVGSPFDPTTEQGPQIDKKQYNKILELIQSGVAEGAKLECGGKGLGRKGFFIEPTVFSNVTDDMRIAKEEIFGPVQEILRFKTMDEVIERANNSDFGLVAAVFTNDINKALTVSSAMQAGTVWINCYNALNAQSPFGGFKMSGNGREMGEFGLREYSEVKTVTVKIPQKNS
Description: as §1, §2, §3, §4

Compound | pIC50 (mALDH1a2) | pIC50 (hALDH1a2)
Cc1cnccc1C(=O)Nc1cc2c(cc1F)NC(=O)CC2 [compound 15] | 5.00 | 5.00
CCc1cnccc1C(=O)Nc1cc2c(cc1Cl)NC(=O)CC2 [compound 70] | 5.53 | < 5.00
Cc1ccc(C)c(CNc2ccc3c(c2)CCC(=O)N3)c1 [compound 10] | 5.46 | 5.05
CCc1cnccc1/C=C/c1ccc2c(c1)CC(C)(C)C(=O)N2 [compound 43] | 5.52 | 5.92
O=C1CCc2cc(Nc3nccc4ccccc34)ccc2N1 [compound 22] | 4.60 | 4.70
Cc1ccccc1C(=O)Nc1ccc2c(c1)CCC(=O)N2 [compound 13] | 5.53 | 5.30
CC1(C)Cc2cc(Nc3ccc4ccncc4c3)ccc2NC1=O [compound 104] | < 5.00 | < 5.00
CC(C)c1cnccc1C(=O)Nc1cc2c(cc1F)NC(=O)CC2 [compound 6] | 5.00 | < 5.00
CCc1ccccc1C(=O)Nc1cc2c(cc1F)NC(=O)CC2 [compound 4] | 5.40 | 5.30
CC(C)Cc1cnccc1C(=O)Nc1cc2c(cc1F)NC(=O)CC2 [compound 7] | 5.05 | 5.46
Cc1cc(C(=O)Nc2cc3c(cc2F)NC(=O)CC3)ccn1 [compound 16] | 5.00 | 5.00
CCc1c(C(=O)Nc2ccc3c(c2)CCC(=O)N3)ccnc1C [compound 55] | < 5.00 | < 5.00
Cc1cccc2ccc(Nc3ccc4c(c3)CC(C)(C)C(=O)N4)nc12 [compound 111] | 6.84 | 6.71
CCc1c[n+]([O-])ccc1C(=O)Nc1ccc2c(c1)CCC(=O)N2 [compound 73] | < 5.00 | < 5.00
CC1(C)Cc2cc(Nc3ccc4c(Cl)cccc4n3)ccc2NC1=O [compound 112] | 6.52 | 6.46
CCc1cnccc1C(=O)Nc1ccc2c(c1)C(C)(C)C(=O)N2 [compound 137] | < 4.00 | < 5.00
N#Cc1ccc2ccc(Nc3ccc4c(c3)CCC(=O)N4)nc2c1 [compound 90] | 5.20 | 5.00
CN(C)Cc1cnccc1C(=O)Nc1ccc2c(c1)CCC(=O)N2 [compound 58] | < 5.00 | < 5.00
CCc1cnc(C)cc1C(=O)Nc1cc2c(cc1F)NC(=O)CC2 [compound 79] | 6.07 | 5.84

Compound | pIC50 (mALDH1a2) | pIC50 (hALDH1a2)
CC1(C)Cc2cc(Nc3ncc4ccccc4n3)ccc2NC1=O [compound 93] | 7.20 | 7.10
CCc1cnccc1C(=O)Nc1ccc2c(c1)CC(C)C(=O)N2 (stereo not drawn) [compound 63] | 6.53 | 6.27
Cc1cc(C(=O)Nc2ccc3c(c2)CC2(CC2)C(=O)N3)c(Cl)cn1 [compound 68] | 5.46 | < 5.00
CCCc1cnccc1C(=O)Nc1ccc2c(c1)CCC(=O)N2 [compound 60] | 6.03 | 5.81
CC1(C)Cc2cc(Nc3cccc(Cl)n3)ccc2NC1=O [compound 122] | < 5.00 | < 5.00
CC1(C)Cc2cc(Nc3ccc4c(c3)NC(=O)CC4)ccc2NC1=O [compound 114] | < 5.00 | < 5.00
CC1(C)Cc2cc(Nc3ccc4ccncc4n3)ccc2NC1=O [compound 94] | 6.04 | 6.09
CCc1cccnc1C(=O)Nc1cc2c(cc1Cl)NC(=O)CC2 [compound 72] | < 5.00 | < 5.00
O=C1CCc2cc(NC(=O)c3ccncc3CC3CC3)c(F)cc2N1 [compound 81] | 6.28 | 6.42
O=C1CCc2cc(NC(=O)c3ccncc3)c(F)cc2N1 [compound 2] | 5.00 | < 5.00
CCc1cnccc1C(=O)Nc1ccc2c(c1)CN(C)C(=O)N2 [compound 20] | < 4.00 | < 5.00
Cc1ccc2nc(Nc3ccc4c(c3)CCC(=O)N4)ccc2c1 [compound 89] | 6.31 | 5.00
Cc1cccc2nc(Nc3ccc4c(c3)CCC(=O)N4)ccc12 [compound 87] | 6.83 | 6.38
CC1(C)Cc2cc(Nc3cc(Cl)c(Cl)cn3)ccc2NC1=O [compound 125] | 5.39 | 5.35
CC1(C)CC(=O)Nc2ccc(Nc3nccc4ccccc34)cc21 [compound 34] | 4.51 | 4.41
CCc1cnccc1C(=O)Nc1ccc2c(c1)C(F)(F)C(=O)N2 [compound 136] | < 5.00 | < 5.00
CC1(C)Cc2cc(Nc3nc4ccccc4o3)ccc2NC1=O [compound 99] | 6.74 | 6.50
CCc1cnc(Cl)cc1C(=O)Nc1cc2c(cc1F)NC(=O)CC2 [compound 80] | 6.49 | 6.42
Cc1nc(Nc2ccc3c(c2)CC(C)(C)C(=O)N3)nc2ccccc12 [compound 132] | 7.28 | 7.15

Compound | pIC50 (mALDH1a2) | pIC50 (hALDH1a2)
CC1(C)Cc2cc(Nc3cnc4ccccc4n3)c(F)cc2NC1=O [compound 109] | 7.35 | 7.38
CC1(C)Cc2cc(Nc3ncc4ccccc4n3)c(F)cc2NC1=O [compound 108] | 7.00 | 6.92
O=C1CCc2cc(Oc3ncc4ccccc4n3)ccc2N1 [compound 119] | 5.00 | < 5.00
CC1(C)Cc2cc(Nc3cnc4ccccc4n3)ccc2NC1=O [compound 92] | 7.51 | 7.40
COC(=O)c1ccc2ncc(Nc3ccc4c(c3)CC(C)(C)C(=O)N4)nc2c1 [compound 120] | < 5.00 | 5.00
O=C1CCc2cc(Nc3ccc4ccccc4n3)c(F)cc2N1 [compound 47] | 7.14 | 7.00
CC1(C)Cc2cc(NN3CCC(c4ccccc4)C3=O)ccc2NC1=O (stereo not drawn) [compound 106] | < 5.00 | < 5.00
CCc1cnccc1/C=C/c1cc2c(cc1F)NC(=O)CC2 [compound 45] | 5.48 | 6.53
COc1cnccc1C(=O)Nc1cc2c(cc1F)NC(=O)C(C)(C)C2 [compound 41] | 4.95 | 5.05
CC1(C)Cc2cc(Nc3ccc(Cl)cn3)ccc2NC1=O [compound 123] | < 5.00 | < 5.00
CCc1cc(C#N)ccc1C(=O)Nc1cc2c(cc1F)NC(=O)C(C)(C)C2 [compound 42] | 5.58 | 5.20
CCCc1cnccc1C(=O)Nc1cc2c(cc1F)NC(=O)CC2 [compound 5] | 5.00 | 5.05
Cc1ccc(C(=O)Nc2ccc3c(c2)CCC(=O)N3)c(C)c1 [compound 12] | < 5.00 | < 5.00
Cc1cc2ccccc2nc1Nc1ccc2c(c1)CC(C)(C)C(=O)N2 [compound 134] | 7.01 | 6.90
CC1(C)Cc2cc(Nc3ccc(Cl)c(Cl)n3)ccc2NC1=O [compound 97] | 6.53 | 6.33
CC1(C)Cc2cc(Nc3ccc4ccccc4n3)ccc2NC1=O [compound 46] | 6.79 | 6.61
Cc1cc(C(=O)Nc2cc3c(cc2F)NC(=O)C(C)(C)C3)c(CC(C)C)cn1 [compound 37] | < 5.00 | < 5.00
CCc1c(C(=O)Nc2ccc3c(c2)CCC(=O)N3)cc[nH]c1=O [compound 50] | < 5.00 | < 5.00
O=C1CCc2cc(Nc3ccc4ccccc4n3)ccc2N1 [compound 35] | 7.00 | 6.83
